{"source": "patent US20120149657A1", "about": "“2'-FLUORO ARABINO NUCLEOSIDES AND USE THEREOF” (Southern Research Institute, priority 2009, published 2012)", "key": {"CCRF-CEM leukemia": {"test_system": "CCRF-CEM leukemia", "test": "In vitro cytotoxicity (MTS, 72 h), CCRF-CEM", "type": "cell-based, human", "conditions": "for IC50: Homo sapiens, CCRF-CEM, 72 hours of incubation", "protocol": "(§1) The concentration of compound required to inhibit cell growth by 50% (IC50) after 72 hours of incubation was determined for each unprotected analog with eight human tumor cell lines (SNB-7 CNS, DLD-1 colon, CCRF-CEM leukemia, NCI-H23 NSCL, ZR-75-1 breast, LOX melanoma, PC-3 prostate, and CAKI-1 renal). […] The α-anomers of these compounds were also screened but were not found to be cytotoxic (data not shown).\n(§2) CCRF-CEM cells are a T-cell leukemia cell line that is known to be very sensitive to nucleoside analogs.\n(§3) All cell lines were grown in RPMI 1640 medium containing 10% fetal bovine serum, sodium bicarbonate, and 2 mM L-glutamine. For in vitro evaluation of the sensitivity of these cell lines to compounds, cells were plated in 96-well microtiter plates and then were exposed continuously to various concentrations of the compounds for 72 h at 37° C. Cell viability was measured using the MTS assay [3-(4,5-dimethylthiazol-2-yl)-5-(3-carboxymethoxyphenyl)-2-(4-sulfophenyl)-2H-tetrazolium, inner salt; MTS and an electron coupling reagent (phenazine ethosulfate; PES)]. Absorbance was read at 490 nm. The background absorbance mean was subtracted from the data followed by conversion to percent of control. The drug concentrations producing survival just above and below 50% level were used in a linear regression analysis to calculate the IC50."}, "[1]": {"test_system": "cells that lacked dCyd kinase", "test": "Cytotoxicity in cells that lacked dCyd kinase", "type": "cell-based", "source_text": "as §2"}, "CCRF-CEM cells": {"test_system": "CCRF-CEM cells", "test": "Intracellular triphosphate in CCRF-CEM cells", "type": "cell-based, human", "protocol": "CCRF-CEM cells were incubated with methyl-F-araC, araC, and gemcitabine, and the amount of intracellular triphosphate (TP) of each compound was determined.\nCCRF-CEM cell extracts were collected by centrifugation and resuspended in ice-cold 0.5 M perchloric acid. The samples were centrifuged at 12,000×g, and the supernatant fluid was neutralized and buffered by adding 4 M KOH and 1 M potassium phosphate, pH 7.4. KClO4 was removed by centrifugation, and a portion of the supernatant fluid was injected onto a strong anion exchange HPLC (Bio Basic anion exchange column, Thermo Electron Corp., Bellefonte, Pa.). Nucleotides were eluted with a 30-min linear salt and pH gradient from 6 mM ammonium phosphate (pH 2.8) to 900 mM ammonium phosphate (pH 6). Peaks were detected as they eluted from the column by their absorbance at 254 nm."}, "PC-3 prostate": {"test_system": "PC-3 prostate", "test": "In vitro cytotoxicity (MTS, 72 h), PC-3", "type": "cell-based", "conditions": "Homo sapiens; PC-3, 72 hours of incubation", "protocol": "as §1, §3"}, "ZR-75-1 breast": {"test_system": "ZR-75-1 breast", "test": "In vitro cytotoxicity (MTS, 72 h), ZR-75-1", "type": "cell-based", "conditions": "Homo sapiens; ZR-75-1, 72 hours of incubation", "protocol": "as §1, §3"}, "CAKI-1 renal [2]": {"test_system": "CAKI-1 renal", "test": "In vitro cytotoxicity (MTS, 72 h), CAKI-1", "type": "cell-based", "conditions": "Homo sapiens; CAKI-1, 72 hours of incubation", "protocol": "as §1, §3"}, "Maximally tolerated dose": {"test": "Maximally tolerated dose", "type": "in vivo, mice", "conditions": "once per day for 9 consecutive days", "protocol": "(§4) Because of its potent in vitro activity, methyl-F-araC (13) was evaluated for in vivo activity against three solid tumor xenografts (CAKI-1 renal, NCI-H23 NSCL, and LOX melanoma). Prior to these studies the maximally tolerated dose of methyl-F-araC was determined to be 3 mg/kg given once per day for 9 consecutive days. […] Female NCr-nu athymic mice were implanted subcutaneously with CAKI-1 tumor fragments. When tumors were approximately 100-250 mg, mice were treated ip with methyl-F-araC at 1, 2, or 3 mg/kg/dose (1 treatment each day for 9 consecutive days starting on day 14). Each treatment group contained 6 mice. The tumors were measured with calipers twice each week, and the weight (mg) was calculated. In this experiment there were 3 of 6 tumor-free survivors at the end of the experiment (62 days post implant) in each treatment group. Good results were also seen against NCI-H23 and LOX human tumor xenografts (Table 2)."}, "NCI-H23 NSCL [3]": {"test_system": "NCI-H23 NSCL", "test": "NCI-H23 NSCL tumor xenograft, sc, in nude mice", "type": "in vivo, female NCr-nu athymic mice", "protocol": "as §4\n(§5) Xenografts were implanted sc on the flanks of female nude mice. When tumors were approximately 100-250 mg, they were treated ip with 3 or 4 mg/kg/dose of methyl-F-araC (q1d×9) and tumor size was measured twice weekly thereafter. Tumor-free survivors are the number of mice that were tumor-free at the end of the experiment/total number of mice in the treatment group. ^aThe difference in the median of times poststaging for tumors of the treated (T) and control (C) groups to double in mass three times. ^bThe difference in the median of times poststaging for tumors of the treated (T) and control (C) groups to double in mass two times. ^cThe difference in the median of times poststaging for tumors of the treated (T) and control (C) groups to double in mass four times.\n(§6) Mice, obtained from various commercial suppliers, were housed in microisolator cages and were allowed commercial mouse food and water ad libitum. […]\n(§7) Antitumor activity was assessed on the basis of delay in tumor growth (T-C). […] Tumors were measured in two dimensions (length and width) twice weekly, and the tumor weight was calculated using the formula (length×width^2)/2 and assuming unit density. […]"}, "SNB-7 CNS": {"test_system": "SNB-7 CNS", "test": "In vitro cytotoxicity (MTS, 72 h), SNB-7", "type": "cell-based", "conditions": "Homo sapiens; SNB-7, 72 hours of incubation", "protocol": "as §1, §3"}, "NCI-H23 NSCL [4]": {"test_system": "NCI-H23 NSCL", "test": "In vitro cytotoxicity (MTS, 72 h), NCI-H23", "type": "cell-based", "conditions": "Homo sapiens; NCI-H23, 72 hours of incubation", "protocol": "as §1, §3"}, "CAKI-1 renal [5]": {"test_system": "CAKI-1 renal", "test": "CAKI-1 renal tumor xenograft, sc, in nude mice", "type": "in vivo, female NCr-nu athymic mice", "protocol": "as §4, §5\nMice, obtained from various commercial suppliers, were housed in microisolator cages and were allowed commercial mouse food and water ad libitum. The three human tumors were obtained from the Developmental Therapeutics Program Tumor Repository (Frederick, Md.) and were maintained in in vivo passage. Only tumor lines that tested negative for selected viruses were used. For the in vivo evaluation of the sensitivity of human tumors to the compounds, female NCr-nu athymic mice were implanted subcutaneously (sc) with 30-40 mg tumor fragments. In each experiment, methyl-F-araC (13) was tested at three dosage levels. […]\nas §7"}, "LOX melanoma [6]": {"test_system": "LOX melanoma", "test": "LOX melanoma tumor xenograft, sc, in nude mice", "type": "in vivo, female NCr-nu athymic mice", "protocol": "as §4, §5, §6, §7"}, "DLD-1 colon": {"test_system": "DLD-1 colon", "test": "In vitro cytotoxicity (MTS, 72 h), DLD-1", "type": "cell-based", "conditions": "Homo sapiens; DLD-1, 72 hours of incubation", "protocol": "as §1, §3"}, "[7]": {"test_system": "eight human tumor cell lines", "test": "In vitro cytotoxicity, panel of eight human tumor cell lines", "type": "cell-based", "protocol": "as §1, §3"}, "LOX melanoma [8]": {"test_system": "LOX melanoma", "test": "In vitro cytotoxicity (MTS, 72 h), LOX", "type": "cell-based", "conditions": "Homo sapiens, 72 hours of incubation", "protocol": "as §1, §3"}, "[9]": {"conditions": "3 mg/kg/dose ip q1d×9, tumor-free/total at end of experiment"}}, "note": "Marks after values point to notes of the source that are not given here.", "data": [{"smiles": "C[C@]1(CO)O[C@@H](n2cnc3c(N)nc(N)nc32)[C@@H](F)[C@@H]1O", "note": "[Compound 21, 2,6-Diamino-9-(2-deoxy-2-fluoro-4-C-methyl-β-D-arabinofuranosyl)purine]", "values": [{"measurement": "melting point", "value": "270 °C (dec.)"}, {"measurement": "IC50", "setting": "CCRF-CEM leukemia", "value": "~500", "unit": "nM"}, {"measurement": "cytotoxicity with addition of deoxycoformycin", "setting": "CCRF-CEM leukemia; deoxycoformycin (adenosine deaminase inhibitor) added", "value": "prevented"}]}, {"smiles": "C[C@]1(CO)O[C@@H](n2cnc3c(=O)[nH]c(N)nc32)[C@@H](F)[C@@H]1O", "note": "[Compound 22, 9-(2-Deoxy-2-fluoro-4-C-methyl-β-D-arabinofuranosyl)guanine]", "values": [{"measurement": "IC50", "setting": "CCRF-CEM leukemia", "value": "~500", "unit": "nM"}]}, {"smiles": "C[C@]1(CO)O[C@@H](n2cnc3c(N)nc(Cl)nc32)[C@@H](F)[C@@H]1O", "note": "[Compound 24, 2-Chloro-9-(2-deoxy-2-fluoro-4-C-methyl-β-D-arabinofuranosyl)adenine]", "values": [{"measurement": "activity in cells that lacked dCyd kinase", "setting": "[1]", "value": "neither compound was active"}, {"measurement": "IC50", "setting": "CCRF-CEM leukemia", "value": "~500", "unit": "nM"}, {"measurement": "inhibition of CCRF-CEM cell growth with dCyd added to the culture medium", "setting": "CCRF-CEM leukemia", "value": "prevented"}]}, {"smiles": "Nc1ccn([C@@H]2O[C@H](CO)[C@@H](O)[C@@H]2O)c(=O)n1", "note": "[araC]", "values": [{"measurement": "intracellular concentration of triphosphate", "setting": "CCRF-CEM cells; 100 nM of compound, two hours, mean±SD, N=3", "value": "12±1", "unit": "pmoles/10^6 cells"}, {"measurement": "intracellular half-life of triphosphate", "setting": "CCRF-CEM cells; CCRF-CEM cells, N=2", "value": 5.6, "unit": "h"}]}, {"smiles": "Nc1ccn([C@@H]2O[C@H](CO)[C@@H](O)C2(F)F)c(=O)n1", "note": "[gemcitabine]", "values": [{"measurement": "intracellular concentration of triphosphate", "setting": "CCRF-CEM cells; human, 2 h, 100 nM", "value": "17±3", "unit": "pmoles/10^6 cells"}]}, {"smiles": "C[C@]1(CO)O[C@@H](n2ccc(N)nc2=O)[C@@H](F)[C@@H]1O", "note": "[methyl-F-araC, 1-(2-Deoxy-2-fluoro-4-C-methyl-β-D-arabinofuranosyl)cytosine]", "values": [{"measurement": "IC50", "setting": "PC-3 prostate", "value": "> 200000", "unit": "nM"}, {"measurement": "IC50", "setting": "ZR-75-1 breast", "value": "> 200000", "unit": "nM"}, {"measurement": "IC50", "setting": "CAKI-1 renal [2]", "value": "540 ± 580", "unit": "nM"}, {"measurement": "intracellular concentration of triphosphate", "setting": "CCRF-CEM cells; human, 2 h, 100 nM", "value": "16±2", "unit": "pmoles/10^6 cells"}, {"measurement": "maximally tolerated dose", "setting": "Maximally tolerated dose", "value": 3, "unit": "mg/kg"}, {"measurement": "activity in cells that lacked dCyd kinase", "setting": "[1]", "value": "neither compound was active"}, {"measurement": "T-C (days)", "setting": "NCI-H23 NSCL [3]; 4 mg/kg/dose ip q1d×9, time to double in mass two times", "value": "18.4^b days"}, {"measurement": "Tumor-free survivors", "setting": "NCI-H23 NSCL [3]; 4 mg/kg/dose ip q1d×9, tumor-free/total at end of experiment", "value": "0/5"}, {"measurement": "in vivo activity (in words)", "setting": "NCI-H23 NSCL [3]; NCI-H23 xenograft", "value": "Good results"}, {"measurement": "IC50", "setting": "SNB-7 CNS", "value": "> 200000", "unit": "nM"}, {"measurement": "IC50", "setting": "NCI-H23 NSCL [4]", "value": "190 ± 10", "unit": "nM"}, {"measurement": "T-C (days)", "setting": "CAKI-1 renal [5]; 3 mg/kg/dose ip q1d×9, time to double in mass three times", "value": ">34.6^a days"}, {"measurement": "Tumor-free survivors", "setting": "CAKI-1 renal [5]; [9]", "value": "3/6"}, {"measurement": "tumor-free survivors in each treatment group", "setting": "CAKI-1 renal [5]; 1, 2, or 3 mg/kg/dose ip, 9 days from day 14, 62 days post implant", "value": "3 of 6"}, {"measurement": "in vivo activity (in words)", "setting": "CAKI-1 renal [5]; CAKI-1 tumors, FIG. 1", "value": "excellent activity"}, {"measurement": "IC50", "setting": "CCRF-CEM leukemia", "value": "12 ± 3", "unit": "nM"}, {"measurement": "inhibition of CCRF-CEM cell growth with dCyd added to the culture medium", "setting": "CCRF-CEM leukemia", "value": "prevented"}, {"measurement": "T-C (days)", "setting": "LOX melanoma [6]; 3 mg/kg/dose ip q1d×9, time to double in mass four times", "value": "15.0^c days"}, {"measurement": "Tumor-free survivors", "setting": "LOX melanoma [6]; [9]", "value": "0/6"}, {"measurement": "in vivo activity (in words)", "setting": "LOX melanoma [6]; LOX xenograft", "value": "Good results"}, {"measurement": "IC50", "setting": "DLD-1 colon", "value": "> 200000", "unit": "nM"}, {"measurement": "cytotoxicity (in words)", "setting": "[7]", "value": "significant cytotoxicity against four of the cell lines"}, {"measurement": "IC50", "setting": "LOX melanoma [8]", "value": "240 ± 150", "unit": "nM"}]}]}
